# According to PMC4076177, “Soluble Phosphatidylserine Binds to Two Sites on Human Factor IXa in a Ca^2+ Dependent Fashion to Specifically Regulate Structure and Activity” (PLoS ONE, 2014):
# Target: T1, Human FIXa (Homo sapiens, UniProt P00740)
# T1 construct: gene F9; purchased from Haematologic Technologies, no tag stated
# Assay: intrinsic fluorescence titration, single-site hyperbolic fit
# Type: binding
# Settings: 5 mM CaCl2, 0.20 µM FIXa, 50 mM Tris, 150 mM NaCl, 0.6% PEG, pH 7.5, 22°C; unreliable (Figure 2 legend prints 2000 µM)
# Source text: intrinsic fluorescence titration, single-site hyperbolic fit on Human FIXa
# T1 sequence (P00740 47-191): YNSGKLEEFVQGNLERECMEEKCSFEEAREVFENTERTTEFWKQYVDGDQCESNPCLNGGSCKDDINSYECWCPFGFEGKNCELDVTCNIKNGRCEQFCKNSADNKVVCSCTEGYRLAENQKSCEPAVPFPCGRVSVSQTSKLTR
# T1 sequence (P00740 227-461): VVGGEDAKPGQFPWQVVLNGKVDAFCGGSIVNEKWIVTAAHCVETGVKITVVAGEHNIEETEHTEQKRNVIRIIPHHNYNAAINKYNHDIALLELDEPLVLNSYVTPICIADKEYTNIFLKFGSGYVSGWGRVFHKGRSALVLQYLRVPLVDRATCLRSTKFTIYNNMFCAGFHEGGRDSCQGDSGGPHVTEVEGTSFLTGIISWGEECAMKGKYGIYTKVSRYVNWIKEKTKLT
row,Compound,"Kd, μM (determined by monitoring change in intrinsic fluorescence) [µM]"
1,CCCCCC(=O)OC[C@H](COP(=O)([O-])OCC[N+](C)(C)C)OC(=O)CCCCC [C6PC],1000 ± 45

# Same assay, conditions: read-out: Kd, μM (determined by monitoring change in intrinsic fluorescence)
row,Compound,Kd [µM]
1,CCCCCC(=O)OC[C@H](COP(=O)(O)OCC(O)CO)OC(=O)CCCCC (stereo partly drawn) [C6PG],307 ± 28.8
2,CCCCCC(=O)OC[C@H](COP(=O)(O)O)OC(=O)CCCCC [C6PA],238 ± 42.7
3,"CCCCCC(=O)OC[C@H](COP(=O)(O)OC[C@H](N)C(=O)O)OC(=O)CCCCC [C6PS, 1,2-dicaproyl-sn-glycero-3-phospho-L-serine]",1.3 ± 0.2
4,CCCCCC(=O)OC[C@H](COP(=O)(O)OC[C@@H](N)C(=O)O)OC(=O)CCCCC [C6(D)PS],208 ± 18
5,CCCCCC(=O)OC[C@H](COP(=O)(O)OCCN)OC(=O)CCCCC [C6PE],66 ± 7
